We go through one molecule from patent publication US20220202771A1, “Antidepressants for the Treatment or Prevention of Memory Loss and/or Cognitive Decline or Dysfunction in Aging” (UNIVERSITY OF NORTH TEXAS HEALTH SCIENCE CENTER AT FORT …, priority 2019, published 2022).

Data set [1] relates to individuals with a diagnosis of MCI with DepE scores >=2. The conditions noted are these: 4 months duloxetine 30-60 mg/day, n=16 participants in the trial.
Method: Treatment duration was 4 months of duloxetine versus placebo. The initial dosage consisted of 30 mg/day duloxetine or placebo; after two weeks, dosage was increased to 60 mg/day. Dosage during the last two weeks of the 4-month study was reduced to 30 mg/day. […] In this study, the inventors recruited n=16 participants with clinical diagnosis of amnestic MCI (single or multi-domain). N=14 subjects enrolled were of Mexican American ethnicity.
Data set [2] has as its system individuals with a diagnosis of MCI with elevated DepE scores. The conditions noted are these: treatment group, follow-up after 4 months. How it is done:
(§1) Next, the inventors conducted an investigator-initiated clinical trial (NCT02590874). […] Treatment duration was 4 months of duloxetine versus placebo. The initial dosage consisted of 30 mg/day duloxetine or placebo; after two weeks, dosage was increased to 60 mg/day. Dosage during the last two weeks of the 4-month study was reduced to 30 mg/day. Secondary endpoints of change in Repeatable Battery for the Assessment of Neuropsychological Status (RBANS) memory scores from baseline to study completion were analyzed. In this study, the inventors recruited n=16 participants with clinical diagnosis of amnestic MCI (single or multi-domain).
Fasting blood samples were collected at baseline and follow-up. Several plasma biomarkers were assessed to determine neurodegeneration over treatment duration: Neurofilament light (NfL)(FIG. 6), Tau (FIG. 5), Aβ40 (FIG. 4) and Aβ42 (FIG. 3).

Data set [3] relates to individuals with a diagnosis of MCI with DepE scores >=2. The procedure: as §1
Where [4] appears, read: Baseline, amnestic MCI participants, duloxetine group before treatment.
Where [5] appears, read: Follow-up, 4 months treatment, 30 mg/day then 60 mg/day, last two weeks 30 mg/day, *p < .05.

Molecules are shown by their SMILES. Structures can show the parent of a compound that is named as a salt. Where two headings read alike, the source gives them in different places.

Turning to `CNCC[C@H](Oc1cccc2ccccc12)c1cccs1` [Duloxetine, N-methyl-γ-(1-naphthalenyloxy)-2-thiopropanamine hydrochloride], the “Serious Adverse Effects (SAEs)” value in data set [1] was “no Serious Adverse Effects (SAEs) were identified”. The “markers of neurodegeneration (NfL, Tau, Aβ40, Aβ42) at follow-up” value in data set [2] (MCI cases with elevated DepE scores) is “primarily stable”. Also, in data set [2] (placebo group showed significant increase, FIG. 3), the “plasma Aβ42, baseline versus follow-up” value was “no significant differences”. The “plasma Aβ40, baseline versus follow-up” value in data set [2] (placebo group showed significant increase, FIG. 4) is given as “no significant differences”. In data set [3] (setting [4]), the “RBANS Delayed Memory” value is listed as 76.63(11.01), the “RBANS Immediate Memory” value was 74.62(11.17) and the “RBANS Total” value is on record as 72.37(5.12). For the same molecule, in data set [3] (setting [5]), the “RBANS Delayed Memory” value was 91.50(6.98)*, the “RBANS Immediate Memory” value is on record as 88.75(11.43)* and the “RBANS Total” value is reported as 80.37(5.31)*. In addition, in data set [3] (MCI patients elevated in the depressive endophenotype, summary statement of the clinical trial), the “effect on memory abilities” value is on record as “significant benefit”. In addition, the “change in RBANS Delayed Memory scores over treatment duration” value in data set [3] (treatment group, 4 months, no significant change in the placebo group (p<0.05), FIG. 2) is given as “significant improvement”.
